Laboratory results reported in US8815909B2, “Diaminocyclohexane compounds and uses thereof” (Bristol-Myers Squibb Company, priority 2011, dated 2014).
Where two headings read alike, the source gives them in different places.

Molecular target: T1, human Y4 receptor (Homo sapiens, UniProt P50391)
T1 construct: expressed in transfected cells
Assay: NPY4 cAMP HTRF Agonist Assay (inhibitory cAMP assay, Gi activation by Y4 agonism)
Assay type: cell-based
Experimental: NPY4 cAMP HTRF Agonist Assay
The functionality of the compound at Y4 receptor was analyzed using a inhibitory cAMP assay (CISBIO, HTRF cAMP kit #62AM4PEC) to measure the Gi activation by Y4 agonism.
The human Y4 stable CHO clonal cells were maintained in culture medium (F-12 containing 10% Fetal Bovine Serum, […] GENETICIN®, […] Zeocin). Before the experiment, 5 μL of 1 uM Forskolin (Sigma, # F6886) and 100 uM IBMX (Sigma, # I5879) in PBS buffer were added into 384-well plates (PE, Proxi-plate) that were pre-dotted with 100 nL compounds. The cells were removed from the flasks by Cellstripper, counted and adjusted to 1.0×10^6 cells/mL in PBS buffer, and added 5 μL/well (5000 cells/well) into the above 384-well plates. The cells were then covered and incubated for 30 minutes at room temperature. After incubation, 5 μL/well of D2-conjugate in HTRF lysis buffer was first added, followed by adding 5 μL/well of anti-cAMP Cryptate in HTRF lysis buffer. The plates were incubated for another 1 hour at room temperature and read on the EnVision Multilabel Plate Reader.
Compounds described herein were tested in the above assay.

[1] = human Y4 receptor, cAMP, read-out: hY4 CAMP EC50
[2] = human Y4 stable CHO clonal cells, forskolin + IBMX, read-out: NPY4 cAMP HTRF Agonist Assay EC50
[3] = TABLE 2, R2 is Phenyl-CN, read-out: hY4 CAMP EC50
[4] = second TABLE 1, R2 is Phenyl-CF3, read-out: hY4 CAMP EC50
[5] = TABLE 4, R2 is Pyridinyl-CN, read-out: hY4 CAMP EC50
[6] = TABLE 7, R2 is Pyridinyl-oxadiazole-CH3, read-out: hY4 CAMP EC50

T1 sequence (P50391 whole entry): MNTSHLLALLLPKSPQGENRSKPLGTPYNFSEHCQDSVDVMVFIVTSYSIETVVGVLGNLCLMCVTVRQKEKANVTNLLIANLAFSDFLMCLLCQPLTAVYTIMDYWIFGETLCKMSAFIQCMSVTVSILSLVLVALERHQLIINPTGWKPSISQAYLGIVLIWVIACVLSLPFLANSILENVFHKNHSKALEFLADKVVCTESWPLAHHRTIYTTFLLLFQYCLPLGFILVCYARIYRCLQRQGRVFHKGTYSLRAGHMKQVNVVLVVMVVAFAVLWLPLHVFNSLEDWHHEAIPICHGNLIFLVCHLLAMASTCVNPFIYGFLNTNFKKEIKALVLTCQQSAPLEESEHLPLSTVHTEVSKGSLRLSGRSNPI

Molecule `CNC(=O)c1cccc(-c2ccnc(N[C@@H]3CCCC[C@H]3N[C@H]3CCCN(c4cnc(-c5noc(C)n5)nc4)C3)c2)c1` [Example 464] has an EC50 [1] of 42 nM.
In the case of `FC(F)(F)c1ccn(-c2ccc(N3CCC[C@H](N[C@@H]4CCCC[C@H]4Nc4nccc(-c5ccccc5)n4)C3)cc2)n1` [Example 69, (1R,2R)—N1-(4-Phenylpyrimidin-2-yl)-N2-((S)-1-(4-(3-(trifluoromethyl)-1H-pyrazol-1-yl)phenyl)piperidin-3-yl)cyclohexane-1,2-diamine bis-trifluoroacetate], the EC50 [2] is reported as 384 nM.
Molecule `Cc1nnc(-c2ccc(N3CCCC(N[C@@H]4CCCC[C@H]4Nc4cc(-c5ccc6c(c5)OCO6)ccn4)C3)cc2)o1` (some centres unmarked) [Example 368] has an EC50 [1] of 39 nM.
Work on `COC(=O)c1cccn1-c1ccnc(N[C@@H]2CCCC[C@H]2N[C@H]2CCCN(c3ccc(C#N)cc3)C2)c1` [Example 204] yielded an EC50 [3] of 147 nM.
Work on `FC(F)(F)c1ccc(N2CCC[C@H](N[C@@H]3CCCC[C@H]3Nc3cc(-c4ccc5c(c4)CNCC5)ccn3)C2)cc1` [Example 146] yielded an EC50 [4] of 726 nM.
With `C[C@]1(N[C@@H]2CCCC[C@H]2Nc2cc(-c3cccc(C(N)=O)c3)ccn2)CCCN(c2ncc(C#N)cn2)C1` [Example 435] the EC50 [1] was 400 nM.
`CNC(=O)c1cccc(-c2cnc(N[C@@H]3CCCC[C@H]3N[C@H]3CCCN(c4cnc(C(F)(F)F)cn4)C3)o2)c1` [Example 429] was tested, and the EC50 [1] was 2 nM.
Work on `N#Cc1ccc(N2CCC[C@H](N[C@@H]3CCCC[C@H]3Nc3cc(-c4ccccc4F)ccn3)C2)cc1` [Example 37, 4-((S)-3-((1R,2R)-2-(4-(2-Fluorophenyl)pyridin-2-ylamino)cyclohexylamino)piperidin-1-yl)benzonitrile tris-trifluoroacetate] yielded an EC50 [2] of 82 nM.
For `Cc1nc(-c2ncc(N3CCC[C@H](N[C@@H]4CCCC[C@H]4Nc4cc(-c5cccc(C(N)=O)c5)ccn4)C3)cn2)no1` [Example 463], the EC50 [1] was 39 nM.
For `N#Cc1ccc(N2CCC[C@H](N[C@@H]3CCCC[C@H]3Nc3cc(-c4ccccc4C#N)ccn3)C2)cc1` [Example 274], the EC50 [3] was 272 nM.
`N#Cc1cnc(N2CCC[C@H](N[C@@H]3CCCC[C@H]3Nc3cc(-c4cccc(C(N)=O)c4)ccn3)C2)cn1` [Example 477] gave an EC50 [1] of 775 nM.
Work on `C[C@]1(N[C@@H]2CCCC[C@H]2Nc2ncc(-c3cccc(C(N)=O)c3)o2)CCCN(c2ncc(C(F)(F)F)cn2)C1` [Example 405] yielded an EC50 [1] of 4 nM.
`N#Cc1ccc(N2CCC[C@H](N[C@@H]3CCCC[C@H]3Nc3cc(-c4cccc5c4NC(=O)C5)ccn3)C2)cc1` [Example 213] was tested, and the EC50 [3] was 183 nM.
With `O=[N+]([O-])c1ccc(N2CCC[C@H](N[C@@H]3CCCC[C@H]3Nc3ncc(-c4ccc(F)c(F)c4)o3)C2)cc1` [Example 10, (1R,2R)—N1-(5-(3,4-Difluorophenyl)oxazol-2-yl)-N2-((S)-1-(4-nitrophenyl)piperidin-3-yl)cyclohexane-1,2-diamine] the EC50 [2] was 26 nM.
Work on `O=C(NC1CC1)c1cccc(-c2cnc(N[C@@H]3CCCC[C@H]3N[C@H]3CCCN(c4ccc(C(F)(F)F)nc4)C3)o2)c1` [Example 99, N-cyclopropyl-(3-(2-((1R,2R)-2((S)-1-(6-trifluoromethyl)pyridin-3yl)piperidin-3-ylamino)cyclohexylamino)oxazol-5-yl)benzamide] yielded an EC50 [2] of 0.8 nM.
`Cn1nnc(-c2ccc(N3CCC[C@H](N[C@@H]4CCCC[C@H]4Nc4cc(Br)ccn4)C3)cc2)n1` [Example 501] gave an EC50 [1] of 84 nM.
`N#Cc1cc(N2CCC[C@H](N[C@@H]3CCCC[C@H]3Nc3ncc(-c4ccccc4OC(F)(F)F)o3)C2)ccn1` [Example 311] showed an EC50 [5] of 9 nM.
`CC(C)(O)c1cccc(-c2ccnc(N[C@@H]3CCCC[C@H]3N[C@H]3CCCN(c4ccc(C#N)cc4)C3)c2)c1` [Example 260] gave an EC50 [3] of 11 nM.
`Cc1nc2ccc(N3CCC[C@H](N[C@@H]4CCCC[C@H]4Nc4ncc(-c5ccc(F)c(F)c5)o4)C3)cn2n1` [Example 492] gave an EC50 [1] of 38 nM.
`N#Cc1ccnc(N[C@@H]2CCCC[C@H]2N[C@H]2CCCN(c3cnc(C(F)(F)F)nc3)C2)c1` [Example 426] gave an EC50 [1] of 600 nM.
For `Cc1nc(-c2ccc(N3CCC[C@H](N[C@@H]4CCCC[C@H]4Nc4ncc(-c5ccc(OC(F)(F)F)cc5)o4)C3)nc2)no1` [Example 392], the EC50 [6] was 194 nM.
Work on `FC(F)(F)Oc1ccc(N2CCC[C@H](N[C@@H]3CCCC[C@H]3Nc3nccc(-c4ccccc4)n3)C2)cc1` [Example 88, (1R,2R)—N1-(4-Phenylpyrimidin-2-yl)-N2-((S)-1-(4-(trifluoromethoxy)phenyl)piperidin-3-yl)cyclohexane-1,2-diamine] yielded an EC50 [2] of 704 nM.
`COC(=O)c1cccc(-c2cnc(N[C@@H]3CCCC[C@H]3N[C@H]3CCCN(c4ccc(-c5noc(C)n5)nc4)C3)o2)c1` [Example 383] was tested, and the EC50 [6] was 14 nM.
In the case of `O=[N+]([O-])c1ccc(N2CCC[C@H](N[C@@H]3CCCC[C@H]3Nc3ncc(-c4ccc(OC(F)(F)F)c(F)c4)o3)C2)cc1` [Example 8, (1R,2R)—N1-(5-(3-Fluoro-4-(trifluoromethoxy)phenyl)oxazol-2-yl)-N2-((S)-1-(4-nitrophenyl)piperidin-3-yl)cyclohexane-1,2-diamine], the EC50 [2] is reported as 16 nM.
`COc1ccc(-c2ccnc(N[C@@H]3CCCC[C@H]3N[C@H]3CCCN(c4ccc(C#N)cc4)C3)c2)cn1` [Example 222] gave an EC50 [3] of 46 nM.
In the case of `COC(=O)N(C)c1cccc(-c2ccnc(N[C@@H]3CCCC[C@H]3N[C@H]3CCCN(c4ccc(C(F)(F)F)cc4)C3)c2)c1` [Example 173], the EC50 [4] is reported as 920 nM.
For `Cc1nc(-c2ccc(N3CCC[C@H](N[C@@H]4CCCC[C@H]4Nc4cc(-c5ccc(F)c(F)c5)ccn4)C3)cc2)no1` [Example 342], the EC50 [1] was 8 nM.
In the case of `OC1(c2cccc(-c3ccnc(N[C@@H]4CCCC[C@H]4N[C@H]4CCCN(c5ccc(C(F)(F)F)cc5)C4)c3)c2)CC1` [Example 151], the EC50 [4] is reported as 292 nM.
Work on `C[C@]1(N[C@@H]2CCCC[C@H]2Nc2cc(-c3cccc(C(N)=O)c3)ccn2)CCCN(c2cnc(C(F)(F)F)cn2)C1` [Example 474] yielded an EC50 [1] of 142 nM.
Molecule `C[C@]1(N[C@@H]2CCCC[C@H]2Nc2ncc(-c3cccc(C(N)=O)c3)o2)CCCN(c2ccc(-c3noc(C4CC4)n3)nc2)C1` [Example 449] has an EC50 [1] of 5 nM.
Molecule `CC(C)(C)Oc1ccc(-c2cnc(N[C@@H]3CCCC[C@H]3N[C@H]3CCCN(c4ccc([N+](=O)[O-])cc4)C3)o2)cc1` [Example 14, (1R,2R)—N1-(5-(4-tert-Butoxyphenyl)oxazol-2-yl)-N2-((S)-1-(4-nitrophenyl)piperidin-3-yl)cyclohexane-1,2-diamine] has an EC50 [2] of 920 nM.
`Cc1nc2ccc(N3CCC[C@H](N[C@@H]4CCCC[C@H]4Nc4cc(-c5cccc(C(N)=O)c5)ccn4)C3)cn2n1` [Example 491] showed an EC50 [1] of 22 nM.
`Cc1cnn(-c2ccc(N3CCC[C@H](N[C@@H]4CCCC[C@H]4Nc4ncc(-c5ccc(OC(F)(F)F)cc5)o4)C3)cc2)c1` [Example 66, (1R,2R)—N1-((S)-1-(4-(4-Methyl-1H-pyrazol-1-yl)phenyl)piperidin-3-yl)-N2-(5-(4-(trifluoromethoxy)phenyl)oxazol-2-yl)cyclohexane-1,2-diamine bis-trifluoroacetate] showed an EC50 [2] of 1260 nM.
Molecule `Nc1cccc(-c2cnc(N[C@@H]3CCCC[C@H]3N[C@H]3CCCN(c4ccc(C(F)(F)F)cc4)C3)o2)c1` [Example 172] has an EC50 [4] of 5 nM.
In the case of `OCCc1ccc(-c2ccnc(N[C@@H]3CCCC[C@H]3N[C@H]3CCCN(c4ccc(C(F)(F)F)cc4)C3)c2)cc1` [Example 152], the EC50 [4] is reported as 508 nM.
In the case of `C[C@]1(N[C@@H]2CCCC[C@H]2Nc2cc(-c3cccc(C(N)=O)c3)ccn2)CCCN(c2ccc(C(F)(F)F)cn2)C1` [Example 332], the EC50 (TABLE 5, R2 is Pyridinyl-CF3, read-out: hY4 CAMP EC50) is reported as 24 nM.
In the case of `N#Cc1ccc(N2CCC[C@H](N[C@@H]3CCCC[C@H]3Nc3noc(-c4ccccc4)n3)C2)cc1` [Example 41], the EC50 [2] is reported as 2510 nM.
`N#Cc1ccc(N2CCC[C@H](N[C@@H]3CCCC[C@H]3Nc3cc(-c4ccccc4)ccn3)C2)cc1` [Example 53, 4-((S)-3-((1R,2R)-2-(4-Phenylpyridin-2-ylamino)cyclohexylamino)piperidin-1-yl)benzonitrile bis-trifluoroacetate] showed an EC50 [2] of 95 nM.
For `O=[N+]([O-])c1cnc(N2CCC[C@H](N[C@@H]3CCCC[C@H]3Nc3ncc(-c4ccc(OC(F)(F)F)cc4)o3)C2)nc1` [Example 78, (1R,2R)—N1-((S)-1-(5-Nitropyrimidin-2-yl)piperidin-3-yl)-N2-(5-(4-(trifluoromethoxy)phenyl)oxazol-2-yl)cyclohexane-1,2-diamine bis-trifluoroacetate], the EC50 [2] was 75 nM.
With `CC(O)c1cccc(-c2ccnc(N[C@@H]3CCCC[C@H]3NC3CCCN(c4ccc(C#N)nc4)C3)c2)c1` (some centres unmarked) [Example 313] the EC50 [5] was 68 nM.
`C[C@]1(N[C@@H]2CCCC[C@H]2Nc2ncc(-c3ccc(OC(F)(F)F)cc3)o2)CCCN(c2ccc(O)cc2)C1` [Example 509] showed an EC50 [1] of 128 nM.
In the case of `CNC(=O)c1cccc(-c2ccnc(N[C@@H]3CCCC[C@H]3N[C@H]3CCCN(c4ccc(C(F)(F)F)cc4)C3)c2)c1` [Example 130], the EC50 [4] is reported as 1 nM.
In the case of `Cc1nnc(-c2ccc(N3CCCC(N[C@@H]4CCCC[C@H]4Nc4cc(-c5cccc(OC(F)(F)F)c5)ccn4)C3)cc2)o1` (some centres unmarked) [Example 358], the EC50 [1] is reported as 17 nM.
`NCc1cccc(-c2ccnc(N[C@@H]3CCCC[C@H]3N[C@H]3CCCN(c4ccc(C(F)(F)F)cc4)C3)c2)c1` [Example 127] was tested, and the EC50 [4] was 79 nM.
